Numbered stars: 1 amine (or outer) side, 2 acyl side, 3 side chain; on linkers, the order of the positions; unused ones are H or OH. Square brackets hold non-standard residues; d marks the D form. Side chains are listed from the residue outwards. Peptide text beside a SMILES is read from it. * marks the point of attachment. C18 diacid = O=C(O)CCCCCCCCCCCCCCCCC(=O)*; γGlu = O=C(O)[C@H](CCC(=O)[*:2])N[*:1]; AEEA = NCCOCCOCC(=O)O; Aib = CC(C)(N)C(=O)O Some results are limits rather than exact numbers.

A short description of data set [1]: ThT assay for the assessment of physical stability (fibrillation). As to conditions: ThT buffer system A: 100 mM phosphate buffer pH 7.4; 3 mg/ml, 37° C., shaking. The class given is physicochemical. An outline of the steps: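 Peptide at 3 mg/ml in 100 mM phosphate buffer pH 7.4 with 100 μM ThT, stressed at 37° C. by cycles of 10 sec shaking at 960 rpm and 50 sec rest. Fluorescence read every 20 min, eight replicates; lag time (h) to fibril onset derived from sigmoidal kinetics.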

Data set [2] deals with human GLP-1 receptor (hGLP-1R) (Homo sapiens, UniProt P43220). Put plainly: Binding assay, displacement of [125I]GLP-1 from HEK-293 membranes over-expressing GLP-1R (SPA). As to conditions: [125I]GLP-1 displacement. An outline of the steps:
(§1)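 Membranes from HEK-293 cells over-expressing human GIPR or GLP-1R, isolated by homogenising, sonicating and ultracentrifuging at 100000×g into HEPES/EDTA/NaCl buffer with protease inhibitors, were used for binding.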
(Loss of bound radioactivity is the signal in a displacement assay; it reports binding, not function.)

Data set [3] concerns the target T1, human GIP receptor (hGIPR) (Homo sapiens, UniProt P48546).
T1 sequence (P48546 22-466): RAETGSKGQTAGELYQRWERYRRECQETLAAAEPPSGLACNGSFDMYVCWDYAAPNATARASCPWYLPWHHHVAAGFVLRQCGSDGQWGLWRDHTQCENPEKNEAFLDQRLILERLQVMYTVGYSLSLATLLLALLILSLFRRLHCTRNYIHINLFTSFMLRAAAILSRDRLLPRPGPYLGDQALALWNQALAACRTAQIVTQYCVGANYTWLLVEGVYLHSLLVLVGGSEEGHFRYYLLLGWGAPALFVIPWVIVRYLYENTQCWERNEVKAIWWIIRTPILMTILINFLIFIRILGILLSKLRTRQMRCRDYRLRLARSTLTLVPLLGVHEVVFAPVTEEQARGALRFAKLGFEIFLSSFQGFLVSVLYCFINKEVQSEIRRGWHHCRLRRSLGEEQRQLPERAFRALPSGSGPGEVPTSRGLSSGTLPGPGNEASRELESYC
Put plainly: Binding assay, displacement of [125I]GIP from HEK-293 membranes over-expressing GIPR (SPA). The conditions noted are these: [125I]GIP displacement. An outline of the steps: as §1

Another data set deals with T2, human GIP receptor (Homo sapiens, UniProt P48546).
T2 construct: human adipocytes endogenously expressing the human GIP receptor; host or cells: human preadipocytes (Lonza) differentiated to adipocytes
T2 sequence (P48546 22-466): T1 sequence (P48546 22-466)
Description: In vitro cellular cAMP assay for GIP receptor efficacy (human adipocytes). In kind it is cell-based. The conditions noted are these: for EC50: read-out: hGIPR EC50; for Emax: read-out: hGIPR Emax. An outline of the steps: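 Human preadipocytes expanded, then differentiated 6 days (insulin, dexamethasone, PPARγ agonist, 200 μM IBMX, L-thyroxine) before plating at 5000 cells/well. Test compound applied 30 min at room temperature; cAMP measured by HTRF after 1 h with lysis-buffer reagents, read as 665/620 nm fluorescence ratio.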

Sequence of human GLP-1 receptor (hGLP-1R) (P43220 24-463): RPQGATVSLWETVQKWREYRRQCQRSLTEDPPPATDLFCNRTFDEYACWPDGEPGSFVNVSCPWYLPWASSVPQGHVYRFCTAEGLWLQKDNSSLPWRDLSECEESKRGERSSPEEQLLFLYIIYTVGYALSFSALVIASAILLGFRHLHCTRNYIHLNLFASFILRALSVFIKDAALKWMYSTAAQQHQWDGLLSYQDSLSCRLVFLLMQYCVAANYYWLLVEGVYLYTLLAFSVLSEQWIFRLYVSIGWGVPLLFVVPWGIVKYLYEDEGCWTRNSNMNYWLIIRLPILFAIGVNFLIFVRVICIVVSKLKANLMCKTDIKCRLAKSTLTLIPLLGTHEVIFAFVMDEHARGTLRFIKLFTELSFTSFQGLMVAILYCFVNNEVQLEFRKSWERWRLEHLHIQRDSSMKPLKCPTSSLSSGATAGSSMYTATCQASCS

`CC[C@H](C)[C@H](NC(=O)[C@H](CCCNC(=N)N)NC(=O)[C@H](CC(=O)O)NC(=O)[C@H](CCCCNC(=O)COCCOCCNC(=O)COCCOCCNC(=O)CC[C@H](NC(=O)CCCCCCCCCCCCCCCCC(=O)O)C(=O)O)NC(=O)C(C)(C)NC(=O)[C@@H](NC(=O)[C@H](CO)NC(=O)[C@H](CC(C)C)NC(=O)[C@H](CC(=O)O)NC(=O)[C@H](CO)NC(=O)[C@@H](NC(=O)[C@H](Cc1ccccc1)NC(=O)[C@@H](NC(=O)CNC(=O)[C@H](CCC(=O)O)NC(=O)C(C)(C)NC(=O)[C@@H](N)Cc1ccc(O)cc1)[C@@H](C)O)[C@@H](C)CC)[C@@H](C)CC)C(=O)N[C@@H](Cc1c[nH]cn1)C(=O)N[C@@H](CCC(N)=O)C(=O)NC(C)(C)C(=O)N[C@@H](CCC(=O)O)C(=O)N[C@@H](Cc1ccccc1)C(=O)N[C@H](C(=O)N[C@@H](CCC(=O)O)C(=O)N[C@@H](Cc1c[nH]c2ccccc12)C(=O)N[C@@H](CC(C)C)C(=O)N[C@@H](CC(C)C)C(=O)N[C@@H](C)C(=O)N[C@@H](CCC(N)=O)C(=O)N[C@@H](CCC(=O)O)C(=O)NCC(N)=O)[C@@H](C)CC` [SEQ ID NO: 12, H2N-Y-Aib-E-G-T-F-I-S-D-L-S-I-Aib-K[{AEEA}2-gGlu-C18OH]-D-R-I-H-Q-Aib-E-F-I-E-W-L-L-A-Q-E-G-NH2]: in data set [1], the “Increase in FI” value is “no” and the “Lag time before increase” value is >45 h. The same compound returned an IC50 in data set [2] of 133 nM. Also, the IC50 in data set [3] was 0.5 nM. On human GIP receptor, the EC50 came out at 0.5 nM and the Emax came out at 112%.

For the compound `CC[C@H](C)[C@H](NC(=O)[C@H](Cc1ccccc1)NC(=O)[C@H](CCC(=O)O)NC(=O)[C@H](CCC(=O)O)NC(=O)[C@H](CCC(N)=O)NC(=O)[C@H](Cc1c[nH]cn1)NC(=O)[C@@H](NC(=O)[C@H](CCCNC(=N)N)NC(=O)[C@H](CC(=O)O)NC(=O)[C@H](CCCCNC(=O)COCCOCCNC(=O)COCCOCCNC(=O)CC[C@H](NC(=O)CCCCCCCCCCCCCCCCC(=O)O)C(=O)O)NC(=O)C(C)(C)NC(=O)[C@@H](NC(=O)[C@H](CO)NC(=O)[C@H](CC(C)C)NC(=O)[C@H](CC(=O)O)NC(=O)[C@H](CO)NC(=O)[C@@H](NC(=O)[C@H](Cc1ccccc1)NC(=O)[C@@H](NC(=O)CNC(=O)[C@H](CCC(=O)O)NC(=O)C(C)(C)NC(=O)[C@@H](N)Cc1ccc(O)cc1)[C@@H](C)O)[C@@H](C)CC)[C@@H](C)CC)[C@@H](C)CC)C(=O)N[C@@H](CCC(N)=O)C(=O)N[C@@H](Cc1c[nH]c2ccccc12)C(=O)N[C@@H](CC(C)C)C(=O)N[C@@H](CC(C)C)C(=O)N[C@@H](C)C(=O)N[C@@H](CCC(N)=O)C(=O)NCC(=O)N1CCC[C@H]1C(=O)N[C@@H](CO)C(=O)N[C@@H](CO)C(=O)NCC(=O)N[C@@H](C)C(=O)N1CCC[C@H]1C(=O)N1CCC[C@H]1C(=O)N1CCC[C@H]1C(=O)N[C@@H](CO)C(N)=O` [SEQ ID NO: 35, H2N-Y-Aib-E-G-T-F-I-S-D-L-S-I-Aib-K[{AEEA}2-gGlu-C18OH]-DRIHQEEFIQWLLAQGPSSGAPPPS-NH2] (H-Y[Aib]EGTFISDLSI[Aib]K([AEEA-AEEA-γGlu-C18 diacid])DRIHQEEFIQWLLAQGPSSGAPPPS-NH2), in data set [1], the “Increase in FI” value was “no” and the “Lag time before increase” value was >45 h. Moreover, in data set [2], the IC50 is > 100 nM. In data set [3], this compound yielded an IC50 of 0.6 nM. For the same compound, at human GIP receptor, the EC50 came to 1.3 nM and the Emax stood at 120%.

Consider `CC[C@H](C)[C@H](NC(=O)[C@H](CCCNC(=N)N)NC(=O)[C@H](CC(=O)O)NC(=O)[C@H](CCCCNC(=O)COCCOCCNC(=O)COCCOCCNC(=O)CC[C@H](NC(=O)CCCCCCCCCCCCCCCCC(=O)O)C(=O)O)NC(=O)C(C)(C)NC(=O)[C@@H](NC(=O)[C@H](CO)NC(=O)[C@H](CC(C)C)NC(=O)[C@H](CC(=O)O)NC(=O)[C@H](CO)NC(=O)[C@@H](NC(=O)[C@@](C)(CC)NC(=O)[C@@H](NC(=O)CNC(=O)[C@H](CCC(=O)O)NC(=O)C(C)(C)NC(=O)[C@@H](N)Cc1ccc(O)cc1)[C@@H](C)O)[C@@H](C)CC)[C@@H](C)CC)C(=O)N[C@@H](Cc1c[nH]cn1)C(=O)N[C@@H](CCC(N)=O)C(=O)NC(C)(C)C(=O)N[C@@H](CCC(=O)O)C(=O)N[C@@H](Cc1ccccc1)C(=O)N[C@H](C(=O)N[C@@H](CCC(=O)O)C(=O)N[C@@H](Cc1c[nH]c2ccccc12)C(=O)N[C@@H](CC(C)C)C(=O)N[C@@H](CC(C)C)C(=O)N[C@@H](C)C(=O)N[C@@H](CCC(N)=O)C(=O)N[C@@H](CCCNC(=N)N)C(=O)NCC(N)=O)[C@@H](C)CC` [SEQ ID NO: 16, H2N-Y-Aib-E-G-T-Iva-I-S-D-L-S-I-Aib-K[{AEEA}2-gGlu-C18OH]-D-R-I-H-Q-Aib-E-F-I-E-W-L-L-A-Q-R-G-NH2], for which, in data set [1], the “Increase in FI” value was “no” and the “Lag time before increase” value is >45 h. For the same compound, the IC50 in data set [2] stood at 174 nM. The same compound came in with an IC50 in data set [3] of 0.1 nM. Also, at human GIP receptor, the EC50 was found to be 0.6 nM and the Emax amounted to 91%.

A word on the IC50: it is the concentration that gives 50% inhibition. As usually defined, the EC50 is the midpoint of the concentration-response curve. The Emax is the size of the effect at its maximum, as opposed to the concentration needed.

For the origin of these results see patent US20240360194A1, “New Peptides as Potent and Selective GIP Receptor Agonists” (Sanofi, priority 2021, published 2024).
